Experimental data taken from US20100093776A1, “Organic Compounds and Their Uses” (Novartis AG, priority 2006, published 2010).

Key:
[1] = biological target: T1, CDK2/cyclinA (Homo sapiens, UniProt P24941); assay: CDK2/cyclinA IMAP fluorescence polarization kinase assay; format: biochemical; conditions: 4.68 μM ATP, two hours at room temperature
T1 construct: purchased Millipore
Protocol: (§1) Kinase assays were performed on recombinant purified enzymes using the non-radioactive IMAP fluorescence polarization assay format.
(§2) Compound stocks were prepared and diluted in DMSO and were added to kinase reactions at a 1/100 dilution for a final concentration of 1% DMSO. The components were added together to final concentrations listed in the tables below and incubated for two hours at room temperature.
(§3) The reactions were stopped by addition of stop solution.
CDK2: final stop concentration is 1× Developer buffer (100% A), IMAP beads 1/400
(§4) The samples were allowed to incubate for one more hour at room temperature and then the fluorescence polarization was measured. The plate normalized millipolarization (mP) values were plotted against the log of compound concentration for each compound and IC50 values were calculated using the spotfire IC50 calculator and confirmed by visual analysis.

[2] = biological target: T2, CDK1/cyclinB (Homo sapiens, UniProt P06493); assay: CDK1/cyclinB IMAP fluorescence polarization kinase assay; format: biochemical; conditions: 52 μM ATP, two hours at room temperature
T2 construct: purchased Millipore
T2 sequence (P06493 whole entry): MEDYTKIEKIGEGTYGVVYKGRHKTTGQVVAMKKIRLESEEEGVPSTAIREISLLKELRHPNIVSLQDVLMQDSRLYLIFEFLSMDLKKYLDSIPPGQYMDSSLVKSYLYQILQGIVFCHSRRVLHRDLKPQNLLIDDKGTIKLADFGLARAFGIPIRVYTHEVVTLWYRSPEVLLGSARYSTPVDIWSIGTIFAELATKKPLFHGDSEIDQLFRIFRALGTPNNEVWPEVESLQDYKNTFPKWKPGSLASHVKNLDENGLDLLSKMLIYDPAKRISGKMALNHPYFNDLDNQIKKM
T2 sequence (P14635 whole entry partner): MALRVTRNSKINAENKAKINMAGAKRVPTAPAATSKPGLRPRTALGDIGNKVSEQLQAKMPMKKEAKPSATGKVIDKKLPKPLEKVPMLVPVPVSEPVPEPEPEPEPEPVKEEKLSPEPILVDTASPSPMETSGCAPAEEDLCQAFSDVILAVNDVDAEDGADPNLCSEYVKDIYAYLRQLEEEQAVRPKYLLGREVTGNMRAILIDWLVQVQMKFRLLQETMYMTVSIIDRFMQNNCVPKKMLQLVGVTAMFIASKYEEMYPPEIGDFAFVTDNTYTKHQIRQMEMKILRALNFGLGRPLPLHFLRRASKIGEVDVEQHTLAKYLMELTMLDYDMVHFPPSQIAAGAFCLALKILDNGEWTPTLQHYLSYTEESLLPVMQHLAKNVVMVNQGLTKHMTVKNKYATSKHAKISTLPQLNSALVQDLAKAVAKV
Protocol: as §1, §2, §3
(§5) CDK9/CDK1/CDK7: final stop concentration is 1× Developer buffer (85% A/15% B), IMAP beads 1/400
as §4

[3] = biological target: T3, CDK9/cyclinT1 (Homo sapiens, UniProt P50750); assay: CDK9/cyclinT1 IMAP fluorescence polarization kinase assay; format: biochemical; conditions: 6 μM ATP, two hours at room temperature
T3 construct: purchased Millipore
T3 sequence (P50750 whole entry): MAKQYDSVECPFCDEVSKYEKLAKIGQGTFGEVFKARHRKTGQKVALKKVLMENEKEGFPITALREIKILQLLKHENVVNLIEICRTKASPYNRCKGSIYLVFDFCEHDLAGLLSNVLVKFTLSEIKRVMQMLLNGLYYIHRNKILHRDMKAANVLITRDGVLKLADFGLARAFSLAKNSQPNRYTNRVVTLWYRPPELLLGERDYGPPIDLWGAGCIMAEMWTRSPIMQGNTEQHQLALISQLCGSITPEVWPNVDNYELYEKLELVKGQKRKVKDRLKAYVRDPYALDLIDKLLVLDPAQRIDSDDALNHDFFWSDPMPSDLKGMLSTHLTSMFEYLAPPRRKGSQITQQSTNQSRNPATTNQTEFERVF
T3 sequence (O60563 whole entry partner): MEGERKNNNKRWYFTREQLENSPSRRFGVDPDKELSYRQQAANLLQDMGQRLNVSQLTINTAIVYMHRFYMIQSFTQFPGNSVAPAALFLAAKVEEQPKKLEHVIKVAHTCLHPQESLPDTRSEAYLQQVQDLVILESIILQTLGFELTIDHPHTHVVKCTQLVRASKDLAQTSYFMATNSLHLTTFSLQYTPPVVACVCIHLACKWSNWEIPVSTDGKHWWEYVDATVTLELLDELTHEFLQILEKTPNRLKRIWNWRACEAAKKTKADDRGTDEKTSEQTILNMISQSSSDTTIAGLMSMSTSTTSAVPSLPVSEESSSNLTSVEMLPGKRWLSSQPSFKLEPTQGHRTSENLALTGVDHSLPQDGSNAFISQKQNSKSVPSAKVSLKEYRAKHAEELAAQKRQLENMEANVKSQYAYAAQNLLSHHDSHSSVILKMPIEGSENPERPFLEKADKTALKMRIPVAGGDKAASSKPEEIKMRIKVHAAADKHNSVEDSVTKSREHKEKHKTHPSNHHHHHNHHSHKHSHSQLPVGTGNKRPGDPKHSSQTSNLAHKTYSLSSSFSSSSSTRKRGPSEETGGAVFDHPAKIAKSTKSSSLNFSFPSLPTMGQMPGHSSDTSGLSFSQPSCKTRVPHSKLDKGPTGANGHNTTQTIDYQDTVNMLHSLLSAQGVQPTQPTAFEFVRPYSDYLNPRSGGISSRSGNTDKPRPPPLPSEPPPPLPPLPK
Protocol: as §1, §2, §3, §5, §4

[4] = test system: RNA polymerase II CTD serine2 phosphorylation in Hep3B cells; assay: H5 (Ser2) Ab High Content Screen: RNA polymerase II CTD serine2 phosphorylation Assay; format: cell-based; conditions: Homo sapiens, compounds for 2 hours, H5 antibody nuclear staining
Protocol: H5 (also referred as Ser2) Ab High Content Screen: RNA polymerase II CTD serine2 phosphorylation Assay
1. Cells are plated into 384 well plates: 30 μl of Hep3B cells (4,000 cells/30 μl) in DMEM with 3% FBS are plated into wells of a tissue culture treated clear bottomed 384 well plate. Cells are allowed to adhere during an overnight incubation.
2. Cells are treated with compounds for two hours: 10 μl of DMEM with 3% FBS is added to each well with a final concentration of DMSO equal to 1%. Cells are incubated with compounds for 2 hours.
3. Cells are fixed and permeabilized. Cells are washed with 30 mM HEPES pH=7.3 then fixed in 4% paraformaldehyde in 30 mM HEPES pH=7.3 for one hour at room temperature. The fix is removed by washing the cells with Tris buffered saline (TBS) and the cells are permeabilized by incubation in TBS with 0.5% triton X-100 for 30 minutes at room temperature. Triton is removed by washing the cells with TBS.
4. Cells are stained with H5 monoclonal antibody and nuclei are stained with Hoechst dye 33342: Block cells by incubating in TBS with 1% Bovine serum albumin (BSA) for one hour at room temperature. Incubate primary H5 Ab (1/250) overnight at 4 degrees in PBS with 1% BSA and 0.1% Tween-20. The next day wash cells with TBS. Add secondary antibody, anti-IgM labeled with cy5 (1/450), and Hoecsht dye 33342 (10 μg/ml) in TBS with 1% BSA and incubate one hour at room temperature. Wash cells with PBS.
5. Measure staining using the In-cell Analyzer system from GE Healthcare. Nuclei were located using the Hoecsht 33342 dye signal and H5 Antibody staining was quantified by measuring cy5 label. Nuclear intensity of H5 staining was plotted against the log of compound concentration for each compound and IC-50 values were calculated using the spotfire IC-50 calculator and confirmed by visual analysis.

[5] = biological target: CDK4 (Homo sapiens, UniProt P11802); assay: CDK4 kinase assay (IMAP fluorescence polarization); format: biochemical
Chain of CDK4 (P11802 whole entry, species assumed): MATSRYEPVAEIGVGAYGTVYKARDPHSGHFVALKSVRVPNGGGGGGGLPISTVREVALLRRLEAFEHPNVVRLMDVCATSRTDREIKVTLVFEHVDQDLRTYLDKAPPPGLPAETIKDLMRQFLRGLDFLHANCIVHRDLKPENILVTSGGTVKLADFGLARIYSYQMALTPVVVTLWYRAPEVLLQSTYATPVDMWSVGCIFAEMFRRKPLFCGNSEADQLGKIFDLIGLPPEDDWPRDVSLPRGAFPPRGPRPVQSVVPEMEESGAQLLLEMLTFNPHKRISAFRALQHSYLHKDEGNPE
Chain of CDK4 (P24385 whole entry partner, species assumed): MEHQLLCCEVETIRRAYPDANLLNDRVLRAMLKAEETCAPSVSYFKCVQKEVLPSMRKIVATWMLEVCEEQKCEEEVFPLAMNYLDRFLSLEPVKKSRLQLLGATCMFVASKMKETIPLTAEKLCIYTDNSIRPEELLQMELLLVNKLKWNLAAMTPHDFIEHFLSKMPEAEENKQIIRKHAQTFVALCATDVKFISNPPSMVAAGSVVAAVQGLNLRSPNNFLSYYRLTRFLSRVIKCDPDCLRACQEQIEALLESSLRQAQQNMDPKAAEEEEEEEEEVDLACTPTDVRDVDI
Protocol: as §1, §2, §4

[6] = biological target: CDK5 (Homo sapiens, UniProt Q00535); assay: CDK5 kinase assay (IMAP fluorescence polarization); format: biochemical
Chain of CDK5 (Q00535 whole entry, species assumed): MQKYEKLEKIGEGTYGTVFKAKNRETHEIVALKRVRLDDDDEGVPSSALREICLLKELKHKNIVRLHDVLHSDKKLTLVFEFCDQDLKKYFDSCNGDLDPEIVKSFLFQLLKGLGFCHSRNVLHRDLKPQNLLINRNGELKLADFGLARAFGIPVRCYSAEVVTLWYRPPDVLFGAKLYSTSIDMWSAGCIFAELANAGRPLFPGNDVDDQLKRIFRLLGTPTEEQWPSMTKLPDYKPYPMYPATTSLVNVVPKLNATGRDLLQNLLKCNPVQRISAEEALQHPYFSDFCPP
Chain of CDK5 (Q15078 whole entry partner, species assumed): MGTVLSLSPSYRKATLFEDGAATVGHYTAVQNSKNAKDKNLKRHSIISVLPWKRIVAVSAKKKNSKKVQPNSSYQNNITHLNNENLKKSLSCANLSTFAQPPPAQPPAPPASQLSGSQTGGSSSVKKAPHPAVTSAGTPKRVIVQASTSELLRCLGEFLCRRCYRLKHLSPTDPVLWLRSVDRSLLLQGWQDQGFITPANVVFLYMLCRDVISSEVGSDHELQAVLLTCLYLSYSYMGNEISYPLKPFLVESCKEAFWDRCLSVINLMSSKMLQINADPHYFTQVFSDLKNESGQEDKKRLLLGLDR
Protocol: as §1, §2, §4

IC50 [1]	IC50 [2]	IC50 [3]	IC50 [4]	IC50 [5]	IC50 [6]	SMILES
< 5 µM	5 to 15 µM	< 5 µM	–	–	–	Cn1ccc2c(-c3ccnc(Nc4cccc(Cl)c4)n3)cccc21 [Compound 3, (3-Chloro-phenyl)-[4-(1-methyl-1H-indol-4-yl)-pyrimidin-2-yl]-amine]
5 to 15 µM	< 5 µM	< 5 µM	–	–	–	CCn1ccc2c(-c3ccnc(Nc4cccc(Cl)c4)n3)cccc21 [Compound 4, (3-Chloro-phenyl)-[4-(1-ethyl-1H-indol-4-yl)-pyrimidin-2-yl]-amine]
> 50 µM	> 50 µM	< 5 µM	–	–	–	CCOC(=O)Cn1ccc2c(-c3ccnc(Nc4cccc(Cl)c4)n3)cccc21 [Compound 5, Ethyl {4-[2-(3-chloro-phenylamino)-pyrimidin-4-yl]-indol-1-yl}acetate]
> 50 µM	> 50 µM	< 5 µM	–	–	–	Clc1cccc(Nc2nccc(-c3cccc4c3ccn4Cc3ccccc3)n2)c1 [Compound 6, [4-(1-Benzyl-1H-indol-4-yl)-pyrimidin-2-yl]-(3-chloro-phenyl)-amine]
< 5 µM	5 to 15 µM	< 5 µM	–	–	–	OCCn1ccc2c(-c3ccnc(Nc4cccc(Cl)c4)n3)cccc21 [Compound 7, 2-{4-[2-(3-chloroaniline)-pyrimidin-4-yl]-indol-1-yl}-ethanol]
< 5 µM	5 to 15 µM	< 5 µM	–	–	–	OCCCn1ccc2c(-c3ccnc(Nc4cccc(Cl)c4)n3)cccc21 [Compound 8, 3-{4-[2-(3-Chloro-phenylamino)-pyrimidin-4-yl]-indol-1-yl}-propan-1-ol]
5 to 15 µM	> 50 µM	< 5 µM	15 to 50 µM	–	–	Clc1cccc(Nc2nccc(-c3cccc4c3ccn4CCN3CCOCC3)n2)c1 [Compound 9, (3-Chloro-phenyl)-{4-[1-(2-morpholin-4-yl-ethyl)-1H-indol-4-yl]-pyrimidin-2-yl}-amine]
< 5 µM	< 5 µM	< 5 µM	–	–	–	CN(C)CCn1ccc2c(-c3ccnc(Nc4cccc(Cl)c4)n3)cccc21 [Compound 10, (3-Chloro-phenyl)-{4-[1-(2-dimethylamino-ethyl)-1H-indol-4-yl]-pyrimidin-2-yl}-amine]
< 5 µM	5 to 15 µM	< 5 µM	–	–	–	CN(C)CCCn1ccc2c(-c3ccnc(Nc4cccc(Cl)c4)n3)cccc21 [Compound 11, (3-Chloro-phenyl)-{4-[1-(3-dimethylamino-propyl)-1H-indol-4-yl]-pyrimidin-2-yl}-amine]
< 5 µM	< 5 µM	< 5 µM	–	–	–	CNC(=O)Cn1ccc2c(-c3ccnc(Nc4cccc(Cl)c4)n3)cccc21 [Compound 12, 2-{4-[2-(3-Chloro-phenylamino)-pyrimidin-4-yl]-indol-1-yl}-N-methyl-acetamide]
< 5 µM	5 to 15 µM	< 5 µM	–	–	–	CN(C)C(=O)Cn1ccc2c(-c3ccnc(Nc4cccc(Cl)c4)n3)cccc21 [Compound 14, 2-{4-[2-(3-Chloro-phenylamino)-pyrimidin-4-yl]-indol-1-yl}-N,N-dimethyl-acetamide]
< 5 µM	< 5 µM	< 5 µM	–	–	–	CC(C)(C)NC(=O)Cn1ccc2c(-c3ccnc(Nc4cccc(Cl)c4)n3)cccc21 [Compound 15, N-tert-Butyl-2-{4-[2-(3-chloro-phenylamino)-pyrimidin-4-yl]-indol-1-yl}-acetamide]
> 50 µM	> 50 µM	< 5 µM	–	–	–	CC(C)CNC(=O)Cn1ccc2c(-c3ccnc(Nc4cccc(Cl)c4)n3)cccc21 [Compound 16, 2-{4-[2-(3-Chloro-phenylamino)-pyrimidin-4-yl]-indol-1-yl}-N-isobutyl-acetamide]
> 50 µM	> 50 µM	> 50 µM	–	–	–	O=C(Cn1ccc2c(-c3ccnc(Nc4cccc(Cl)c4)n3)cccc21)NCc1ccccc1 [Compound 17, N-Benzyl-2-{4-[2-(3-chloro-phenylamino)-pyrimidin-4-yl]-indol-1-yl}-acetamide]
< 5 µM	5 to 15 µM	< 5 µM	–	–	–	O=C(Cn1ccc2c(-c3ccnc(Nc4cccc(Cl)c4)n3)cccc21)NCCO [Compound 18, 2-{4-[2-(3-Chloro-phenylamino)-pyrimidin-4-yl]-indol-1-yl}-N-(2-hydroxy-ethyl)-acetamide]
> 50 µM	5 to 15 µM	< 5 µM	–	–	–	NCCNC(=O)Cn1ccc2c(-c3ccnc(Nc4cccc(Cl)c4)n3)cccc21 [Compound 19, N-(2-Amino-ethyl)-2-{4-[2-(3-chloro-phenylamino)-pyrimidin-4-yl]-indol-1-yl}-acetamide]
> 50 µM	> 50 µM	< 5 µM	–	–	–	O=C(Cn1ccc2c(-c3ccnc(Nc4cccc(Cl)c4)n3)cccc21)N1CCNCC1 [Compound 20, 2-{4-[2-(3-Chloro-phenylamino)-pyrimidin-4-yl]-indol-1-yl}-1-piperazin-1-yl-ethanone]
15 to 50 µM	> 50 µM	< 5 µM	–	–	–	NC1CCN(C(=O)Cn2ccc3c(-c4ccnc(Nc5cccc(Cl)c5)n4)cccc32)CC1 [Compound 21, 1-(4-Amino-piperidin-1-yl)-2-{4-[2-(3-chloro-phenylamino)-pyrimidin-4-yl]-indol-1-yl}-ethanone]
< 5 µM	5 to 15 µM	< 5 µM	–	–	–	O=C(Cn1ccc2c(-c3ccnc(Nc4cccc(Cl)c4)n3)cccc21)NCC1CCCN1 (centres unmarked) [Compound 22, 2-{4-[2-(3-Chloro-phenylamino)-pyrimidin-4-yl]-indol-1-yl}-N-pyrrolidin-2-ylmethyl-acetamide]
> 50 µM	15 to 50 µM	< 5 µM	–	–	–	O=C(Cn1ccc2c(-c3ccnc(Nc4cccc(Cl)c4)n3)cccc21)NCCN1CCCC1 [Compound 23, 2-{4-[2-(3-Chloro-phenylamino)-pyrimidin-4-yl]-indol-1-yl}-N-(2-pyrrolidin-1-yl-ethyl)-acetamide]
5 to 15 µM	15 to 50 µM	< 5 µM	–	–	–	O=C(O)Cn1ccc2c(-c3ccnc(Nc4cccc(Cl)c4)n3)cccc21 [Compound 24, {4-[2-(3-Chloro-phenylamino)-pyrimidin-4-yl]-indol-1-yl}-acetic acid]
15 to 50 µM	15 to 50 µM	< 5 µM	–	–	–	Cc1cnc(Nc2cccc(Cl)c2)nc1-c1cccc2[nH]ccc12 [Compound 30, (3-Chloro-phenyl)-[4-(1H-indol-4-yl)-5-methyl-pyrimidin-2-yl]-amine]
< 5 µM	< 5 µM	< 5 µM	–	< 5 µM	< 5 µM	Cc1cnc(Nc2cccc(S(N)(=O)=O)c2)nc1-c1cccc2[nH]ccc12 [Compound 32, 3-[4-(1H-Indol-4-yl)-5-methyl-pyrimidin-2-ylamino]-benzenesulfonamide]
< 5 µM	< 5 µM	< 5 µM	–	–	–	COc1cnc(Nc2cccc(S(N)(=O)=O)c2)nc1-c1cccc2[nH]ccc12 [Compound 33, 3-[4-(1H-Indol-4-yl)-5-methoxy-pyrimidin-2-ylamino]-benzenesulfonamide]
< 5 µM	< 5 µM	< 5 µM	–	–	–	NS(=O)(=O)c1cccc(Nc2ncc(F)c(-c3cccc4[nH]ccc34)n2)c1 [Compound 34, 3-[5-Fluoro-4-(1H-indol-4-yl)-pyrimidin-2-ylamino]-benzenesulfonamide]
< 5 µM	< 5 µM	< 5 µM	–	5 to 15 µM	< 5 µM	Cc1ccc2[nH]ccc2c1-c1ccnc(Nc2cccc(S(C)(=O)=O)c2)n1 [Compound 35, (3-Methanesulfonyl-phenyl)-[4-(5-methyl-1H-indol-4-yl)-pyrimidin-2-yl]-amine]
